Reference: ChEMBL document CHEMBL4825671, “Design, synthesis and biological evaluation of novel FXIa inhibitors with 2-phenyl-1H-imidazole-5-carboxamide moiety as P1 fragment” (Eur J Med Chem, 2021)

Assays:
[1] = molecular target: T1, Coagulation factor XI (Homo sapiens, UniProt P03951); assay: Binding affinity to coagulation factor 11a (unknown origin) assessed as inhibition constant using (p-Glu-Pro-Arg-pNa,HCl) as substrate preincubated for 5 mins followed by substrate addition and measured after 10 mins
[2] = molecular target: T1, Coagulation factor XI; assay: Inhibition of coagulation factor 11a (unknown origin) at 100 uM using (p-Glu-Pro-Arg-pNa,HCl) as substrate preincubated for 5 mins followed by substrate addition and measured after 10 mins relative to control; settings: time 15.0 min
[3] = molecular target: T1, Coagulation factor XI; assay: Inhibition of coagulation factor 11a (unknown origin) at 500 uM using (p-Glu-Pro-Arg-pNa,HCl) as substrate preincubated for 5 mins followed by substrate addition and measured after 10 mins relative to control; settings: time 15.0 min

T1 sequence (P03951 19-387 limits assumed): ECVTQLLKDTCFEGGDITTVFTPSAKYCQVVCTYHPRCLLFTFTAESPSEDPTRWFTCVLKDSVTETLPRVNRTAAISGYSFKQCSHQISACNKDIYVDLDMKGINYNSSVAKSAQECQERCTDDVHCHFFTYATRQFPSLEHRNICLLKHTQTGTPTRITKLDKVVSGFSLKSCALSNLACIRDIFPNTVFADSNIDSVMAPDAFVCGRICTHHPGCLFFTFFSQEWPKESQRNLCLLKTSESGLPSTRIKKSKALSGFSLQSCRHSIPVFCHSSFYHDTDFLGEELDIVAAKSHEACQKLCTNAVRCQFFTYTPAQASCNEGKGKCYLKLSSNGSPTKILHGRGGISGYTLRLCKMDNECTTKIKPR
T1 sequence (P03951 388-625 limits assumed): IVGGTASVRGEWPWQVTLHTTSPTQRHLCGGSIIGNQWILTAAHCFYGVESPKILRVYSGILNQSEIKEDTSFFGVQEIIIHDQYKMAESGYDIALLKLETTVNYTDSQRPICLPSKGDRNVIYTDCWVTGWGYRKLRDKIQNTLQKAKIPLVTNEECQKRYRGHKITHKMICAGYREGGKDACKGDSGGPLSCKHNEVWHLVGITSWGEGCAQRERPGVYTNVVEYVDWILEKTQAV

Ki [1]	inhibition [2]	inhibition [3]	SMILES
366 nM			Cc1nc(-c2cccc(Cl)c2F)n(O)c1C(=O)N[C@@H](Cc1ccc(NC(=O)c2ccccc2)cc1)C(=O)Nc1ccc2[nH]c(C(=O)O)cc2c1
26 nM			Cc1nc(-c2cccc(Cl)c2F)n(O)c1C(=O)N[C@@H](Cc1ccc(NC(=O)CC(C)C)cc1)C(=O)Nc1ccc2[nH]c(C(=O)O)cc2c1
356 nM			Cc1nc(-c2cccc(Cl)c2F)n(O)c1C(=O)N[C@@H](Cc1ccc(Cl)cc1)C(=O)Nc1ccc2[nH]c(C(=O)O)cc2c1
23900 nM			Cc1nc(-c2cccc(C#N)c2)n(O)c1C(=O)N[C@@H](Cc1ccccc1)C(=O)Nc1ccc(C(=O)O)cc1
392 nM			CC(=O)Nc1ccc(C[C@H](NC(=O)c2c(C)nc(-c3cccc(Cl)c3F)n2O)C(=O)Nc2ccc3[nH]c(C(=O)O)cc3c2)cc1
259 nM			Cc1nc(-c2cccc(Cl)c2F)n(O)c1C(=O)N[C@@H](Cc1ccc(NC(=O)C2CC2)cc1)C(=O)Nc1ccc2[nH]c(C(=O)O)cc2c1
33.9 nM			Cc1nc(-c2cccc(Cl)c2F)n(O)c1C(=O)N[C@@H](Cc1ccc(NC(=O)C2CCCC2)cc1)C(=O)Nc1ccc2[nH]c(C(=O)O)cc2c1
> 100000 nM			Cc1nc(-c2ccccc2)n(O)c1C(=O)N[C@@H](Cc1ccccc1)C(=O)Nc1ccc(C(=O)O)cc1
> 100000 nM	22.5%		Cc1nc(-c2ccc(Cl)cc2)n(O)c1C(=O)N[C@@H](Cc1ccccc1)C(=O)Nc1ccc(C(=O)O)cc1
> 100000 nM	0%		COn1c(-c2cccc(Cl)c2F)nc(C)c1C(=O)N[C@@H](Cc1ccccc1)C(=O)Nc1ccc(C(=O)O)cc1
156 nM			Cc1nc(-c2cccc(Cl)c2F)n(O)c1C(=O)N[C@@H](Cc1ccc(NC(=O)C(C)C)cc1)C(=O)Nc1ccc2[nH]c(C(=O)O)cc2c1
56.3 nM			Cc1nc(-c2cccc(Cl)c2F)n(O)c1C(=O)N[C@@H](Cc1ccc(NC(=O)C2CCCCC2)cc1)C(=O)Nc1ccc2[nH]c(C(=O)O)cc2c1
> 100000 nM	0%		Cc1nc(-c2ccc(C#N)cc2)n(O)c1C(=O)N[C@@H](Cc1ccccc1)C(=O)Nc1ccc(C(=O)O)cc1
> 500000 nM		29.8%	Cc1nc(-c2ccc(OCC(C)C)c(C#N)c2)n(O)c1C(=O)O
53 nM			C#CC(=O)Nc1ccc(C[C@H](NC(=O)c2c(C)nc(-c3cccc(Cl)c3F)n2O)C(=O)Nc2ccc3[nH]c(C(=O)O)cc3c2)cc1
22400 nM			Cc1nc(-c2cccc(Cl)c2F)n(C)c1C(=O)N[C@@H](Cc1ccccc1)C(=O)Nc1ccc(C(=O)O)cc1
22.5 nM			Cc1nc(-c2cccc(Cl)c2F)n(O)c1C(=O)N[C@@H](Cc1ccc(NC(=O)C2CCC2)cc1)C(=O)Nc1ccc2[nH]c(C(=O)O)cc2c1
26400 nM			Cc1nc(-c2cccc(Cl)c2F)[nH]c1C(=O)N[C@@H](Cc1ccccc1)C(=O)Nc1ccc(C(=O)O)cc1
